In ChEMBL document CHEMBL5463728, “Data for DCP probe BAY-6096” (2023):

Legend:
[1] = biological target: Alpha-1A adrenergic receptor (Homo sapiens) (UniProt P35348); conditions: Compound concentration 10.0 uM
[2] = biological target: Sodium-dependent noradrenaline transporter (Homo sapiens) (UniProt P23975); conditions: Compound concentration 10.0 uM
[3] = biological target: Histamine H1 receptor (Homo sapiens) (UniProt P35367); conditions: Compound concentration 10.0 uM
[4] = biological target: 5-hydroxytryptamine receptor 3A (Homo sapiens) (UniProt P46098); conditions: Compound concentration 10.0 uM
Sequence of 5-hydroxytryptamine receptor 3A (Homo sapiens) (P46098 whole entry): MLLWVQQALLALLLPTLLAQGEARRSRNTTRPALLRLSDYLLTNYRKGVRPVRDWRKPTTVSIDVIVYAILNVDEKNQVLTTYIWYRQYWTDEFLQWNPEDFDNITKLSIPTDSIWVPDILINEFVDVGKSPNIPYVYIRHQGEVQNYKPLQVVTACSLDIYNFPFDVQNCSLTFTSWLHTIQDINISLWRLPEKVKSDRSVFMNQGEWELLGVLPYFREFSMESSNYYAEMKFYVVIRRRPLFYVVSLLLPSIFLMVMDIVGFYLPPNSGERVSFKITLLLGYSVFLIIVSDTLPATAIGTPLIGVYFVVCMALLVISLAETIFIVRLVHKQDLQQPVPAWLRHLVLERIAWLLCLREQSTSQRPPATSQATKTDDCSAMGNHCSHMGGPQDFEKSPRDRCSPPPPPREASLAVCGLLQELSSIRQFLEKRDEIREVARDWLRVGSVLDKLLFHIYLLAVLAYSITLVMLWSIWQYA

[5] = biological target: T1, 5-hydroxytryptamine receptor 1A (Homo sapiens) (UniProt P08908); conditions: Compound concentration 10.0 uM
T1 sequence (whole entry): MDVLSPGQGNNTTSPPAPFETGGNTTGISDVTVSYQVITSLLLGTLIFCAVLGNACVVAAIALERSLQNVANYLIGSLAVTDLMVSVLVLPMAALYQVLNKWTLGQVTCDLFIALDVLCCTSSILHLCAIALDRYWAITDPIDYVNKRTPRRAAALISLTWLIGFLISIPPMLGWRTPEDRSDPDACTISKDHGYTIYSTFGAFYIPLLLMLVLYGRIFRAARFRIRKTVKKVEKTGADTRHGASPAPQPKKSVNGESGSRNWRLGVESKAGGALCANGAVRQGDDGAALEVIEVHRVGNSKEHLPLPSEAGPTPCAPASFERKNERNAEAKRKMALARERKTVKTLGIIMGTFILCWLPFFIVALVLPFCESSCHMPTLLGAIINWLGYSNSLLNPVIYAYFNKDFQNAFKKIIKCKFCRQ

[6] = biological target: Alpha-2B adrenergic receptor (Canis lupus familiaris, UniProt Q2MDQ0); assay: Cell based assay dog (ADRA2B); assay type: functional
[7] = biological target: Sigma intracellular receptor 2 (Homo sapiens) (UniProt Q5BJF2); conditions: Compound concentration 10.0 uM
Sequence of Sigma intracellular receptor 2 (Homo sapiens) (Q5BJF2 whole entry): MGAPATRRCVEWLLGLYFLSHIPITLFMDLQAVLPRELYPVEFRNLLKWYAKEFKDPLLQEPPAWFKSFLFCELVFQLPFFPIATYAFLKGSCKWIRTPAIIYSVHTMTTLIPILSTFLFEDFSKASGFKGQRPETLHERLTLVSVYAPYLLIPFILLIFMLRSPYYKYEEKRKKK

[8] = biological target: T2, Beta-3 adrenergic receptor (Homo sapiens, UniProt P13945); conditions: Compound concentration 10.0 uM
Target sequence in this assay (P13945 whole entry, looked up): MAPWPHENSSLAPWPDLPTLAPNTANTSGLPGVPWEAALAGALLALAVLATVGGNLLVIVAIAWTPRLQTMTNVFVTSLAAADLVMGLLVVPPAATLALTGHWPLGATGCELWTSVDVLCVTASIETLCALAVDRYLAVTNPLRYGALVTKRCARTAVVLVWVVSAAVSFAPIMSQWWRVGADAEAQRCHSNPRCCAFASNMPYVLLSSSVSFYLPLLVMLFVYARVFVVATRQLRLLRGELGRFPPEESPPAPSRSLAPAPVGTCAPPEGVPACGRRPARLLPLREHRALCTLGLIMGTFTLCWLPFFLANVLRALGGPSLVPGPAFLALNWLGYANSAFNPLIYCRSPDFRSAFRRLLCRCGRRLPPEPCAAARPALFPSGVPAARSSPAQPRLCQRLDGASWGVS

[9] = biological target: D(1B) dopamine receptor (Homo sapiens) (UniProt P21918); conditions: Compound concentration 10.0 uM
[10] = biological target: Sodium-dependent serotonin transporter (Homo sapiens) (UniProt P31645); conditions: Compound concentration 10.0 uM
Sequence of Sodium-dependent serotonin transporter (Homo sapiens) (P31645 whole entry, looked up): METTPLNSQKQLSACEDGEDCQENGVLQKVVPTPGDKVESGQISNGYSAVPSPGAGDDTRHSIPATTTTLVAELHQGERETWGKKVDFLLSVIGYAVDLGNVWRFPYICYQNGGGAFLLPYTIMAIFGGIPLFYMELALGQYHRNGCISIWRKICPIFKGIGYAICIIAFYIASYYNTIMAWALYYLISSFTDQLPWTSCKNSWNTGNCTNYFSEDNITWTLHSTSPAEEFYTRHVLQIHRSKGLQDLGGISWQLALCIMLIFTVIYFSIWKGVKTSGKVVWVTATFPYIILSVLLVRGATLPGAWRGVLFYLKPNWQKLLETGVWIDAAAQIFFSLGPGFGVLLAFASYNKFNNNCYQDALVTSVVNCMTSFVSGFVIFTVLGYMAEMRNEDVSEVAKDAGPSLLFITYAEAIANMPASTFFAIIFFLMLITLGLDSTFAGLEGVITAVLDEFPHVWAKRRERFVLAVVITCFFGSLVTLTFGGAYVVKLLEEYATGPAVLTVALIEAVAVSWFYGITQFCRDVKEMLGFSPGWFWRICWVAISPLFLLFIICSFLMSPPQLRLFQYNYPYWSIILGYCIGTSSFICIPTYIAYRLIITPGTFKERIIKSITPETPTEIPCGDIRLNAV

[11] = biological target: 5-hydroxytryptamine receptor 1A (Homo sapiens, UniProt P08908); assay: GPCRScan assay: inhibition of 5-HT1A; design: radioligand conc. used [nm] 0.5 – 1.0, parental cells stable CHO
[12] = biological target: Alpha-1A adrenergic receptor (Homo sapiens, UniProt P35348); assay: Adrenoceptor reporter cell assay (ADRA1A); assay type: functional
[13] = biological target: D(1A) dopamine receptor (Homo sapiens) (UniProt P21728); conditions: Compound concentration 10.0 uM
[14] = biological target: 5-hydroxytryptamine receptor 2B (Homo sapiens) (UniProt P41595); conditions: Compound concentration 10.0 uM
Sequence of 5-hydroxytryptamine receptor 2B (Homo sapiens) (P41595 whole entry): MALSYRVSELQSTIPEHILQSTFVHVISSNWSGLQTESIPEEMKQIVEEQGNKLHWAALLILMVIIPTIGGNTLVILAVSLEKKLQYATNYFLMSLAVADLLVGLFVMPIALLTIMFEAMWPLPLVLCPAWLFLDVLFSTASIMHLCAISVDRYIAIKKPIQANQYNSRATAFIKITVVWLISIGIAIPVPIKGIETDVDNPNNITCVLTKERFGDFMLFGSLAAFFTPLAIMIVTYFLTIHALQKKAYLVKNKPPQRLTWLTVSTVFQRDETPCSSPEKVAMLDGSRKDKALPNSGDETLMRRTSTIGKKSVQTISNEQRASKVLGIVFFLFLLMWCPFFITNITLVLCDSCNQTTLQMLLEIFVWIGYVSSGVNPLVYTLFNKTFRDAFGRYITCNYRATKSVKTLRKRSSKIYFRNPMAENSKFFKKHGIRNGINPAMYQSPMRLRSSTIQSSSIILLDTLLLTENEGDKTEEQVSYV

[15] = biological target: 5-hydroxytryptamine receptor 7 (Homo sapiens) (UniProt P34969); conditions: Compound concentration 10.0 uM
Sequence of 5-hydroxytryptamine receptor 7 (Homo sapiens) (P34969 whole entry): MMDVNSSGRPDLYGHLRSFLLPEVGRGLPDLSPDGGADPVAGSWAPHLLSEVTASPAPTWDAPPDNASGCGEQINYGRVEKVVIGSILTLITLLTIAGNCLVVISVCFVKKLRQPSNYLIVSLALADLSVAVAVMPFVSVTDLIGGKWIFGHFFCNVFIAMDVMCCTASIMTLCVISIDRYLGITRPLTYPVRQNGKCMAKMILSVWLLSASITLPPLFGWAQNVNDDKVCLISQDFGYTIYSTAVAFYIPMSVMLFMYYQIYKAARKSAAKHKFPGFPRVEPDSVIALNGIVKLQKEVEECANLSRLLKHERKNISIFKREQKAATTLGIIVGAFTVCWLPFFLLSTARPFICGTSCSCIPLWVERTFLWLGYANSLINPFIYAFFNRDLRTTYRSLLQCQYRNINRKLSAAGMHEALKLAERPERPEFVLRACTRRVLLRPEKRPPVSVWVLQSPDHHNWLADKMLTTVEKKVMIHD

[16] = biological target: Delta-type opioid receptor (Homo sapiens) (UniProt P41143); conditions: Compound concentration 10.0 uM
Sequence of Delta-type opioid receptor (Homo sapiens) (P41143 whole entry): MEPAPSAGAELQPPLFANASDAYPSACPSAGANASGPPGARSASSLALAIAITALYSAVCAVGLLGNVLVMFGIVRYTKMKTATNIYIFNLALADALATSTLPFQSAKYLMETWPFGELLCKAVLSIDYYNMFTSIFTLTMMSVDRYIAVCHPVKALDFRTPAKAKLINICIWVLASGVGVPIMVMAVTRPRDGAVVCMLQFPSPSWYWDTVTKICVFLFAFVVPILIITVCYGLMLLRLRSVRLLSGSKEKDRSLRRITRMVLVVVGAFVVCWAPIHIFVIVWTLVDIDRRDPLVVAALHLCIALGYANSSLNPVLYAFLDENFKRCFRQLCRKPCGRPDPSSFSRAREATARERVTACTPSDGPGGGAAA

[17] = biological target: 5-hydroxytryptamine receptor 5A (Homo sapiens) (UniProt P47898); conditions: Compound concentration 10.0 uM
Sequence of 5-hydroxytryptamine receptor 5A (Homo sapiens) (P47898 whole entry): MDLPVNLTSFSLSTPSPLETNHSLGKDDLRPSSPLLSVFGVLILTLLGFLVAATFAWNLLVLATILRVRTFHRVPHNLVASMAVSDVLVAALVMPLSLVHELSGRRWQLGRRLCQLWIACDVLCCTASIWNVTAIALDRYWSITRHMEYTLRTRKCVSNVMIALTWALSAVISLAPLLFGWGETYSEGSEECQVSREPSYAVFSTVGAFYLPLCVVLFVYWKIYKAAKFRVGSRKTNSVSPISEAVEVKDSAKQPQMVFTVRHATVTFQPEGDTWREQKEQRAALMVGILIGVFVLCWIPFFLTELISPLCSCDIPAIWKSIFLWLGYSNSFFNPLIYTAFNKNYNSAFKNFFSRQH

[18] = biological target: D(2) dopamine receptor (Homo sapiens, UniProt P14416); conditions: Compound concentration 10.0 uM
[19] = biological target: 3',5'-cyclic-AMP phosphodiesterase 4D (Homo sapiens) (UniProt Q08499); assay: Inhibition of Phosphodiesterase PDE4D2 at 10 µM in the Eurofins-Panlabs enzyme assay (Eurofins_assay_154420); design: substrate with concentration; conditions: Compound concentration 10.0 uM
[20] = biological target: Growth hormone secretagogue receptor type 1 (Homo sapiens) (UniProt Q92847); conditions: Compound concentration 10.0 uM
[21] = organism: Sus scrofa; assay: Inhibition of ATPase, Na+/K+, Heart at compound concentration of 10.0 uM in the Eurofins-Panlabs enzyme assay (Eurofins_assay_107710); design: substrate with concentration; conditions: Compound concentration 10.0 uM
[22] = biological target: T2, Beta-3 adrenergic receptor; assay: Adrenoceptor reporter cell assay (ADRB3); assay type: functional
[23] = biological target: Sodium-dependent noradrenaline transporter (Homo sapiens) (UniProt P23975); conditions: Compound concentration 10.0 uM; remark: listed apart in the source
[24] = biological target: T3, Muscarinic acetylcholine receptor M2 (Homo sapiens) (UniProt P08172); conditions: Compound concentration 10.0 uM
T3 sequence (whole entry): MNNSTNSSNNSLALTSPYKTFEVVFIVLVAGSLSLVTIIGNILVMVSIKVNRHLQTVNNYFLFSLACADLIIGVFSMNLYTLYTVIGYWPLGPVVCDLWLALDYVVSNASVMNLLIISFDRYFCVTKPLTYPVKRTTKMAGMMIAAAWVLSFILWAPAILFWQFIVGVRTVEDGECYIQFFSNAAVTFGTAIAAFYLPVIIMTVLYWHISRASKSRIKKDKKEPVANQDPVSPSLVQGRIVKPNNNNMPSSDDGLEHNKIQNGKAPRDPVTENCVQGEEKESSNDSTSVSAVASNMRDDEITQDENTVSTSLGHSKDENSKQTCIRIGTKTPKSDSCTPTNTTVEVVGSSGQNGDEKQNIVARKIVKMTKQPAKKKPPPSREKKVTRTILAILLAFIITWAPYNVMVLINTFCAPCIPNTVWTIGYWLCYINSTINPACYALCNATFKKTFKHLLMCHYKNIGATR

[25] = biological target: D(3) dopamine receptor (Homo sapiens) (UniProt P35462); conditions: Compound concentration 10.0 uM
[26] = biological target: Alpha-1D adrenergic receptor (Homo sapiens, UniProt P25100); assay: Adrenoceptor reporter cell assay (ADRA1D); assay type: functional
[27] = biological target: Muscarinic acetylcholine receptor M1 (Homo sapiens) (UniProt P11229); conditions: Compound concentration 10.0 uM
[28] = biological target: Vasopressin V1a receptor (Homo sapiens) (UniProt P37288); conditions: Compound concentration 10.0 uM
[29] = organism: Rattus norvegicus; conditions: Compound concentration 10.0 uM
[30] = biological target: Thromboxane-A synthase (Homo sapiens) (UniProt P24557); assay: Inhibition of Thromboxane Synthase at compound concentration of 10.0 uM in the Eurofins-Panlabs enzyme assay (Eurofins_assay_194020); design: substrate with concentration; conditions: Compound concentration 10.0 uM
[31] = biological target: Histamine H3 receptor (Homo sapiens) (UniProt Q9Y5N1); conditions: Compound concentration 10.0 uM

Sequence of Histamine H1 receptor (Homo sapiens) (P35367 whole entry): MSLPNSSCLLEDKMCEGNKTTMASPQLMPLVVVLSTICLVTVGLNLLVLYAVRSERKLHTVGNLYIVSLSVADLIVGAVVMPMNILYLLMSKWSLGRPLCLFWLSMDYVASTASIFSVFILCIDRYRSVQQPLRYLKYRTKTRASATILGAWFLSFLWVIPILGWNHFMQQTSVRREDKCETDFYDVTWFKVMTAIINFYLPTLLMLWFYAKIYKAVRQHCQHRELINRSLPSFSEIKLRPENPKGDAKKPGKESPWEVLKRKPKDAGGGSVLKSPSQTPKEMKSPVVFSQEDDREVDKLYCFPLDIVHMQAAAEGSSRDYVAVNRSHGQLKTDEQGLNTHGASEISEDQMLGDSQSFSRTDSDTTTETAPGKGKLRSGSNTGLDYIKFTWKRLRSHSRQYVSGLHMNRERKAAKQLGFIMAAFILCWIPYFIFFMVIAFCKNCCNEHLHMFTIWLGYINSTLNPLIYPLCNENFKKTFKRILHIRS
Sequence of Sodium-dependent noradrenaline transporter (Homo sapiens) (P23975 whole entry): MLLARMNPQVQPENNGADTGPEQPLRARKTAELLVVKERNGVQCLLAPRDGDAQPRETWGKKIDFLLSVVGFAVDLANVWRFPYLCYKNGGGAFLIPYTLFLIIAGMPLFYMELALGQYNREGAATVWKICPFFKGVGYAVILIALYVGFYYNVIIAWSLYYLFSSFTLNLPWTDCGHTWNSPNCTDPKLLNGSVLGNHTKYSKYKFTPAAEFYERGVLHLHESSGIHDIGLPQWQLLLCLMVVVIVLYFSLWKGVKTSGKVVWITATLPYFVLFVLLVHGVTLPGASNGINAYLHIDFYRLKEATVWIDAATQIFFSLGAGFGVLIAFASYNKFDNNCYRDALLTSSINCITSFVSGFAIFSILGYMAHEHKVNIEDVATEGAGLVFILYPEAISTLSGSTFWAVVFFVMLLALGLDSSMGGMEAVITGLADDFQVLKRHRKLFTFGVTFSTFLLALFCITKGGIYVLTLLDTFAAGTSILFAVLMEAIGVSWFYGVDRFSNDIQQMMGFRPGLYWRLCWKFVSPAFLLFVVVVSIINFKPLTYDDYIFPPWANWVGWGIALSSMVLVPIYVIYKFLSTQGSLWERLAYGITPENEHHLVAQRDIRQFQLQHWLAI
Sequence of Alpha-1A adrenergic receptor (Homo sapiens) (P35348 whole entry): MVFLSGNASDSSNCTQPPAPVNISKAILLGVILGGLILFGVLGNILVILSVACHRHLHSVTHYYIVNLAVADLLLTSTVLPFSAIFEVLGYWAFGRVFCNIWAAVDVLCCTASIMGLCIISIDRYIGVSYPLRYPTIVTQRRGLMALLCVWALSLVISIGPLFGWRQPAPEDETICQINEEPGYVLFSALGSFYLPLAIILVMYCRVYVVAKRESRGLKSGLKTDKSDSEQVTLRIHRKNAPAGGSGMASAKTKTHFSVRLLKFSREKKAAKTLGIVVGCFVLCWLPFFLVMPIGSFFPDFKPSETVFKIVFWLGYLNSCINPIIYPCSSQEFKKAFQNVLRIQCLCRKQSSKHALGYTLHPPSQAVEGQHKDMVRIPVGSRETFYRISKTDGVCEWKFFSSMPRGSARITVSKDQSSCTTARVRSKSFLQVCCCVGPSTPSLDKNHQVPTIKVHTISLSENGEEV

SMILES	inhibition [1]	inhibition [2]	inhibition [3]	inhibition [4]	inhibition [5]	inhibition [7]	inhibition [8]	inhibition [10]	IC50 [12]	inhibition [13]	inhibition [14]	inhibition [15]	inhibition [16]	inhibition [17]	other results
Cc1noc(C)c1-c1cnc2cc(C(=O)NCCC[n+]3ccc(N(C)C)cc3)ccn12	9.17%	1.75%	2.11%	4.99%	81.7%	14.1%	-3.02%	1.28%	> 10 µM (not active)	-2.67%	10.3%	3.4%	-5.36%	-2.29%	IC50 [6]: 10 µM (not active); inhibition [9]: 0.03%; Ki ([11]; read-out: Ki): 0.212 µM; Ki ([11]; read-out: pKi (converted)): 0.182 µM
CNc1cc[n+](CCNC(=O)c2ccn3c(-c4c(C)noc4C)cnc3c2)cc1	31.1%	-2.68%	1.15%	6.7%	33.4%	27.5%	1.07%	7.14%	5.52 µM (not active)	-2.83%	4.13%	5.99%	20.1%	3.22%	inhibition [18]: -1.6%; inhibition [19]: -0.5%; inhibition [20]: 2.3%; inhibition [21]: -2.1%; IC50 [22]: > 10 µM (not active); inhibition [23]: 2.7%; inhibition [24]: 6.4%; inhibition [25]: -4.7%; IC50 [26]: > 10 µM (not active); inhibition [27]: -4.1%; inhibition [28]: -2.3%; inhibition [29]: 0.4%; inhibition [30]: -8.2%; inhibition [31]: 1.6%
